“And” between values parts separate entries of the source, which are not always exact repeats. Identical values can stand only once. Like-named read-outs stand apart in the source and are kept apart here.
Legend:
[1] = tested on: RKO; experiment: cell viability in human CRC cell line RKO; type: cell-based; conditions: ED Fig. 9g, replicates; for viability at 0.0137 µM: read-out: RKO Cell viability (%), 0.0137 µM; for viability at 0.0412 µM: read-out: RKO Cell viability (%), 0.0412 µM; for viability at 0.1235 µM: read-out: RKO Cell viability (%), 0.1235 µM; for viability at 0.3704 µM: read-out: RKO Cell viability (%), 0.3704 µM; for viability at 3.3333 µM: read-out: RKO Cell viability (%), 3.3333 µM; for viability at 10 µM: read-out: RKO Cell viability (%), 10.0000 µM
Method: To generate KAP^2D cells, KAP organoids were isolated from Matrigel, fragmented by mechanical dissociation and plated without any extracellular matrix on common cell culture dishes. Phoenix-Eco packaging cells (CRL-3214), HCT-15 (CCL-225), HCT 116 (CCL-247), COLO 205 (CCL-222), LS 174T (CL-188), RKO (CRL-2577) and HT-29 (HTB-38) were obtained from the American Type Culture Collection. The cells were cultured at 37 °C and 7% CO2 with RPMI (KAP^2D cells) or DMEM (other cell lines), supplemented with 10% FBS and penicillin–streptomycin. KAP^2D cells were authenticated using PCR (Kras locus and Trp53 locus). Phoenix-Eco packaging cells and HCT-15, HCT 116, COLO 205, LS 174T, RKO and HT-29 cells were authenticated by the provider using short tandem repeat profiling. No commonly misidentified cell lines were used. Mycoplasma contamination was excluded by a PCR-based analysis.
For in vitro treatment studies, organoids were mechanically dissociated and digested using TrypLE supplemented with 100 µg ml^−1 DNaseI and 10.5 µM Y-27632 dihydrochloride (Invitrogen) at 37 °C. A total of 1,000–2,000 single cells were plated per well in white 96-well plates (Greiner) in culture medium containing 10% GFR Matrigel or Cultrex BME. The treatment with doxycycline (5 µg ml^−1), pharmacological inhibitors or corresponding volumes of DMSO was started 24 h after plating. Doxycycline was obtained from Sigma-Aldrich. […] Cell viability was measured by means of CellTiter-Glo 3D or CellTiter-Glo 2.0 reagent (Promega) according to the manufacturers’ instructions and the Infinite M Plex reader (Tecan, i-control version 3.9.1 software). Results were normalized to vehicle (DMSO) or to shNC. For cell-doubling assays, the cell number was quantified at the corresponding time points using Guava EasyCyte flow cytometer (Luminex, CytoSoft v5.2 software).

[2] = tested on: KAP^2D cells; experiment: EdU incorporation in KAP^2D cells; type: cell-based, mouse; conditions: replicates, experiment and repetition
Method: Immunofluorescence staining on cells and organoids was performed on glass coverslips or tissue culture chambers (Sarstedt). Organoids were plated in medium containing 10% Matrigel or Cultrex BME. The cultures were fixed with 4% paraformaldehyde and stained with specific antibodies and DAPI (Vector Labs). All used antibodies and dilutions are listed in the Nature Portfolio Reporting Summary. For analyzing DNA synthesis, the Molecular Probes Click-iT EdU Alexa Fluor 555 kit was used 24 h after EdU incorporation with DAPI counterstaining. SA-β-Gal staining of cells was performed in cell culture dishes (cells) or tissue culture chambers (organoids) after fixation with 0.5% glutaraldehyde as described above. Human cultures were incubated with X-Gal solution at pH 6.0 for ~4 h.

[3] = tested on: KAP^2D cells; experiment: annexin V apoptosis analysis in KAP^2D cells; type: cell-based, mouse; conditions: Fig. 5a
Method: Apoptosis was analyzed with the FITC annexin V apoptosis detection kit (Biolegend). Both measurements were performed with FACS Canto II (BD) and physical parameters were used to exclude cell debris and cell doublets.

[4] = tested on: subcutaneous KAP CRCs; experiment: treatment of subcutaneous KAP tumors in wild-type mice; type: in vivo, mouse; conditions: Fig. 1j, individual tumors
[5] = Homo sapiens, RKO, first experiment

In the case of O=C1c2ccc(Nc3ccc(F)cc3F)cc2CCc2ccc(OC[C@H](O)CO)cc21 [SKL, skepinone-L, reference compound], the “RKO Cell viability (%)” value ([1]; 0.0412 µM, Repetition) is reported as 110.50% and 104.43%, the “RKO Cell viability (%)” value ([1]; 0.0412 µM, first experiment) is reported as 90.38% and 90.15% and the “RKO Cell viability (%)” value ([1]; 0.1235 µM, Repetition) is reported as 96.29%. The “RKO Cell viability (%)” value ([1]; 0.1235 µM, first experiment) was 96.41% and 82.79%, the “RKO Cell viability (%)” value ([1]; 0.3704 µM, Repetition) was 112.94% and 109.02% and the “RKO Cell viability (%)” value ([1]; 0.3704 µM, first experiment) was 79.06% and 75.48%. For the same molecule, the “RKO Cell viability (%)” value ([1]; 1.1111 µM, Repetition) was 92.46% and 113.42% and 111.27%, the “RKO Cell viability (%)” value ([1]; 1.1111 µM, first experiment) was 98.68% and 92.88% and the “RKO Cell viability (%)” value ([1]; 3.3333 µM, Repetition) was 97.71% and 103.33%. The “RKO Cell viability (%)” value ([1]; 3.3333 µM, first experiment) was 90.21% and 92.19%, the “RKO Cell viability (%)” value ([1]; 10.0000 µM, Repetition) was 100.51% and 98.00% and the “RKO Cell viability (%)” value ([1]; 10.0000 µM, first experiment) was 77.92% and 73.23%. For the same molecule, the viability at 0.0137 µM ([1]; Homo sapiens, RKO, Repetition) was 123%, the viability at 0.0137 µM [1, 5] was 103% and the viability at 0.0412 µM ([1]; Homo sapiens, RKO, Repetition) was 107%. The viability at 0.0412 µM [1, 5] was 102%, the viability at 0.1235 µM ([1]; Homo sapiens, RKO, Repetition) was 114% and the viability at 0.1235 µM [1, 5] was 91.2%. For the same molecule, the viability at 0.3704 µM ([1]; Homo sapiens, RKO, Repetition) was 108%, the viability at 0.3704 µM [1, 5] was 82.8% and the viability at 1.1111 µM ([1]; Homo sapiens, RKO, read-out: RKO Cell viability (%), 1.1111 µM, first experiment) was 99.3%. It also gave a viability at 3.3333 µM ([1]; Homo sapiens, RKO, Repetition) of 96.8%, a viability at 3.3333 µM [1, 5] of 96.5% and a viability at 10 µM ([1]; Homo sapiens, RKO, Repetition) of 92%. For the same molecule, the viability at 10 µM [1, 5] was 71.1%, the “EdU+ cells” value ([2]; Fig. 4j) was 82.79% and 86.90% and 76.55% and 79.03% and 85.67% and 83.92% and 75.07% and 81.04% and the “EdU+ cells” value ([2]; Fig. 5b) was 71.09% and 73.09% and 75.56% and 76.21% and 80.69% and 80.64% and 67.57% and 64.28%. For the same molecule, the “Annexin V+ cells” value ([3]; 1 d of treatment) was 5.21% and 5.26% and 4.63% and 7.96% and 7.76% and 8.93%, the “Annexin V+ cells” value ([3]; 2 d of treatment) was 9.26% and 10.60% and 6.13% and 6.98% and 6.69% and 8.97% and the “Annexin V+ cells” value ([3]; 3 d of treatment) was 12.30% and 9.65% and 9.21% and 7.99% and 8.10%. For the same molecule, the “Annexin V+ cells” value ([3]; 4 d of treatment) was 14.90% and 13.30% and 12.30% and 11.90% and 13.00% and 16.60%, the “Tumor volume (mm³)” value ([4]; day 0 of treatment) was 32.0 mm³ and 62.5 mm³ (2×) and 64.0 mm³ and 75.0 mm³ and 31.5 mm³ and 56.0 mm³ (3×) and 40.0 mm³ and the “Tumor volume (mm³)” value ([4]; day 2 of treatment) was 56.0 mm³ and 100.0 mm³ and 75.0 mm³ and 108.0 mm³ and 36.0 mm³ and 62.5 mm³ and 64.0 mm³ (3×) and 48.0 mm³. The “Tumor volume (mm³)” value ([4]; day 4 of treatment) was 100.0 mm³ and 108.0 mm³ and 87.5 mm³ and 126.0 mm³ and 48.0 mm³ and 75.0 mm³ (4×) and 56.0 mm³, the “Tumor volume (mm³)” value ([4]; day 6 of treatment) was 100.0 mm³ (2×) and 112.5 mm³ and 171.5 mm³ and 144.0 mm³ and 56.0 mm³ and 75.0 mm³ (2×) and 108.0 mm³ and 62.5 mm³ and the “Tumor volume (mm³)” value ([4]; day 8 of treatment) was 144.0 mm³ and 180.0 mm³ (2×) and 162.0 mm³ and 72.0 mm³ and 108.0 mm³ and 126.0 mm³ and 87.5 mm³ and 112.5 mm³ (2×). For the same molecule, the “Tumor volume (mm³)” value ([4]; day 10 of treatment) was 180.0 mm³ (2×) and 245.0 mm³ and 171.5 mm³ and 112.5 mm³ and 126.0 mm³ (3×) and 144.0 mm³ and 108.0 mm³ and the “Tumor volume (mm³)” value ([4]; day 12 of treatment) was 245.0 mm³ and 320.0 mm³ and 196.0 mm³ (3×) and 125.0 mm³ and 171.5 mm³ (2×) and 162.0 mm³ and 144.0 mm³.

Reference: publication PMC11864979, “First-in-class ultralong-target-residence-time p38α inhibitors as a mitosis-targeted therapy for colorectal cancer” (Nature Cancer, 2025)
